This passage reports Drug uptake and Drug excretion results from ChEMBL document CHEMBL5316344, “Homologation of the Alkyl Side Chain of Antimitotic Phenyl 4-(2-Oxo-3-alkylimidazolidin-1-yl)benzenesulfonate Prodrugs Selectively Targeting CYP1A1-Expressing Breast Cancers Improves Their Stability in Rodent Liver Microsomes” (J Med Chem, 2023).

Data set [1] is described as follows: Biodistribution in muscle of OF1 mouse at 292 kBq, iv administered as C14-lableled compound and assessed as radioactivity and measured at 1 hr post dose by digital autoradiographic analysis. The format is ADME, organism-based, Muscle tissue. Conditions: in vivo; call rule not given here.
Data set [2] is described as follows: Biodistribution in brain of OF1 mouse at 292 kBq, iv administered as C14-lableled compound and assessed as radioactivity and measured at 1 hr post dose by digital autoradiographic analysis. Conditions: in vivo. The class given is ADME, organism-based.
The nature of data set [3]: Biodistribution in heart of OF1 mouse at 292 kBq, iv administered as C14-lableled compound and assessed as radioactivity and measured at 1 hr post dose by digital autoradiographic analysis. The class given is ADME, organism-based. Conditions: in vivo.
The nature of data set [4]: Biodistribution in lungs of OF1 mouse at 292 kBq, iv administered as C14-lableled compound and assessed as radioactivity and measured at 1 hr post dose by digital autoradiographic analysis. The class given is ADME, organism-based, Lung. Conditions: in vivo.
Data set [5] in a line: Biodistribution in liver of OF1 mouse at 292 kBq, iv administered as C14-lableled compound and assessed as radioactivity and measured at 1 hr post dose by digital autoradiographic analysis. The class given is ADME, organism-based. Conditions: in vivo.
A short description of data set [6]: Biodistribution in stomach of OF1 mouse at 292 kBq, iv administered as C14-lableled compound and assessed as radioactivity and measured at 1 hr post dose by digital autoradiographic analysis. The class given is ADME, organism-based. Conditions: in vivo.
Data set [7] is described as follows: Biodistribution in kidney of OF1 mouse at 292 kBq, iv administered as C14-lableled compound and assessed as radioactivity and measured at 1 hr post dose by digital autoradiographic analysis. The class given is ADME, organism-based. Conditions: in vivo.
Data set [8] in a line: Biodistribution in spleen of OF1 mouse at 292 kBq, iv administered as C14-lableled compound and assessed as radioactivity and measured at 1 hr post dose by digital autoradiographic analysis. The class given is ADME, organism-based. Conditions: in vivo.
Data set [9] in a line: Biodistribution in muscle of nude mouse xenografted with human MCF7 cells at 292 kBq, iv administered as C14-lableled compound and assessed as radioactivity and measured at 6 hrs post dose by digital autoradiographic analysis. The class given is ADME, organism-based, Muscle tissue. Conditions: in vivo. For orientation: In xenograft studies the graft and the host belong to different species.

The nature of data set [10]: Biodistribution in brain of nude mouse xenografted with human MCF7 cells at 292 kBq, iv administered as C14-lableled compound and assessed as radioactivity and measured at 6 hrs post dose by digital autoradiographic analysis. The format is ADME, organism-based. Conditions: in vivo.
A short description of data set [11]: Biodistribution in heart of nude mouse xenografted with human MCF7 cells at 292 kBq, iv administered as C14-lableled compound and assessed as radioactivity and measured at 6 hrs post dose by digital autoradiographic analysis. The class given is ADME, organism-based. Conditions: in vivo.
Data set [12] is described as follows: Biodistribution in lung of nude mouse xenografted with human MCF7 cells at 292 kBq, iv administered as C14-lableled compound and assessed as radioactivity and measured at 6 hrs post dose by digital autoradiographic analysis. The class given is ADME, organism-based. Conditions: in vivo.
Data set [13] is described as follows: Biodistribution in stomach of nude mouse xenografted with human MCF7 cells at 292 kBq, iv administered as C14-lableled compound and assessed as radioactivity and measured at 6 hrs post dose by digital autoradiographic analysis. The class given is ADME, organism-based. Conditions: in vivo.
A short description of data set [14]: Biodistribution in kidney of nude mouse xenografted with human MCF7 cells at 292 kBq, iv administered as C14-lableled compound and assessed as radioactivity and measured at 6 hrs post dose by digital autoradiographic analysis. The class given is ADME, organism-based. Conditions: in vivo.
Data set [15] in a line: Biodistribution in spleen of nude mouse xenografted with human MCF7 cells at 292 kBq, iv administered as C14-lableled compound and assessed as radioactivity and measured at 6 hrs post dose by digital autoradiographic analysis. Conditions: in vivo. The class given is ADME, organism-based.
Data set [16] is described as follows: Drug excretion in OF1 mouse feces at 292 kBq, iv administered as C14-lableled compound and assessed as radioactivity and measured at 3 to 6 hrs post dose. The class given is ADME, organism-based. Conditions: in vivo, time 3-6 hrs.
Data set [17] can be described thus: Drug excretion in OF1 mouse urine at 292 kBq, iv administered as C14-lableled compound and assessed as radioactivity and measured at 3 to 6 hrs post dose. The format is ADME, organism-based. Conditions: in vivo, time 3-6 hrs.

Turning to `COc1cc(OS(=O)(=O)c2ccc(N3CCN[14C]3=O)cc2)cc(OC)c1OC`, the Drug uptake entry in [1], in data set [2], in [3], in [4], in [5] and in data set [6] was “Active” throughout. Besides, the Drug uptake entry in data set [7] is “Active”; in [8], “Active”; in [9], “Not Active”; in data set [10], “Not Active”; in [11], “Not Active”; in data set [12], “Not Active”. Further, the Drug uptake result in data set [13], in data set [14] and in data set [15] was “Not Active” throughout. The Drug excretion entry in data set [16] and in [17] was “Active” in each case.
